Measured values reported in patent US8063221B2, “Aminoquinolones as GSK-3 inhibitors” (Kyorin Pharmaceutical Co., Ltd., priority 2006, dated 2011).
In brackets after ≈: the same amount, converted by molar mass. Where two headings read alike, the source gives them in different places. One block for each molecule: values may come before it.

Tests used:
[1] = Animal Study 1 (blood glucose in db/db mice); type: in vivo; details: 100 mg/kg orally, 0-6 hr after administration
Experimental: Animal Study 1 Male obese hyperglycemic mice (db/db) and lean mice (C57BL/6J) were obtained from Charles River Laboratories Japan (Yokohama, Japan). All mice were given a standard diet (Clea Japan, Tokyo, Japan) and tap water ad libitum. All institutional guidelines for animal care and use were applied in this study. Test compounds were suspended in 0.3% carboxymethyl-cellulose sodium salt (CMC-Na; Sigma, St. Louis, Mo.). After fasting for 2 hr, the test compounds (100 mg/kg) were administered orally to 7-week-old db/db mice. Vehicle (0.3% CMC-Na) was administered orally to both 7-week-old db/db mice and lean mice. Blood samples were collected from tail vein using capillary tubes containing EDTA·2K at 0, 0.5, 1, 2, 4, and 6 hr after the administration. The blood samples were centrifuged at 2,500×g for 5 min and separated plasma was kept on ice and analyzed in the same day. Plasma glucose levels were determined using the glucose CII-test (Wako Pure Chemical Industries, Osaka, Japan). CHIR99021 is a selective inhibitor of GSK3 enzyme known in the art (see, Ring D B et al., Selective GSK-3 inhibitors potentiate insulin activation of glucose transport and utilization in vitro and in vivo. Diabetes 2003, 52(3): 588-595).

[2] = molecular target: T1, recombinant full-length human GSK3β (Homo sapiens, UniProt P49841); experiment: Luciferase-coupled cell-free GSK3β kinase assay; type: biochemical
T1 construct: recombinant full-length human GSK3β (Upstate); purchased Upstate
T1 sequence (P49841 whole entry): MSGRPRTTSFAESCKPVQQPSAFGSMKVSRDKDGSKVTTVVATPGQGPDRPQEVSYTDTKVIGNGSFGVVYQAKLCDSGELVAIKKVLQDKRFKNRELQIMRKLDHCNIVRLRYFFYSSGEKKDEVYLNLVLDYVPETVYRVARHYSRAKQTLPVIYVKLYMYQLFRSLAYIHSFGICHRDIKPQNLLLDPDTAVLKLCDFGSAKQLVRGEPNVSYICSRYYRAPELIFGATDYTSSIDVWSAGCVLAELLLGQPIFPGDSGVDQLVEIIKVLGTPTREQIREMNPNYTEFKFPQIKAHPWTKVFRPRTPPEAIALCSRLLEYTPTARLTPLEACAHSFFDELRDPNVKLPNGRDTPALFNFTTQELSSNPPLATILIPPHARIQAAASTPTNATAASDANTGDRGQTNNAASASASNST
Procedure, shortened: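 GSK3β, 10-25 ng, was incubated with compound for 1 h at 30° C in MOPS pH 7.0 buffer containing 62.5 μM phospho-glycogen synthase peptide-2 and 5 μM ATP. Remaining ATP was read by KinaseGlo luminescence, and IC50 was fitted from % inhibition relative to maximal inhibition.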

[3] = Animal Study 2 (oral glucose tolerance test); parameters: species or system Crlj:CD1 (ICR) mice; details: Mus musculus, read-out: In vivo studies 300 mg/kg (oral glucose tolerance test, % decrease)
Description: The results of in vivo oral glucose tolerance test (Example 39), expressed as % decrease, are presented as follows: […]
Animal Study 2 (Oral Glucose Tolerance Test)
Male Crlj:CD1 (ICR) mice were obtained from Charles River Laboratries Japan (Yokohama, Japan). All mice were given a standard diet (Clea Japan, Tokyo, Japan) and tap water ad libitum. All institutional guidelines for animal care and use were applied in this study. Test compounds were suspended in 0.3% carboxymethyl-cellulose sodium salt (CMC-Na; Sigma, St. Louis, Mo.). After fasting for 15-17 hr, the test compound (300 mg/kg) or vehicle (0.3% CMC-Na) was orally administered to 7-week-old ICR mice. Glucose solution (5 g/kg) was orally administered at 30 min after test compound treatment. Blood samples were collected from tail vein using capillary tubes containing EDTA·2K before test compound treatment, and at 0, 0.5, 1, and 2 hr after glucose load. The blood samples were centrifuged at 2,500×g for 5 min and separated plasma was kept on ice and analyzed in the same day. Plasma glucose levels were determined using the glucose C II-test (Wako Pure Chemical Industries, Osaka, Japan).
The sum of plasma glucose levels at 0.5 and 1 hr after glucose load was compared to that of vehicle treatment, and results were presented as percent decrease.

E. coli, ATCC8739 = experiment: Antibacterial activity (MIC), E. coli; type: cell-based; details: Escherichia coli
Procedure, shortened: (§1)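 MIC, the lowest compound concentration inhibiting bacterial growth in culture medium, determined by dilution method per CLSI M7-A4 guidance; reported in μM.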

S. aureus Smith = experiment: Antibacterial activity (MIC), S. aureus; type: cell-based; details: Staphylococcus aureus
Procedure, shortened: as §1

[4] = Table 2, 300 mg/kg oral, ICR mice, plasma glucose 0.5 and 1 hr after glucose load vs vehicle
[5] = ATCC8739, Table 2, E. coli ATCC8739, read-out: Antimicrobial MIC [μM] E. Coli
[6] = Table 2, S. aureus Smith, read-out: Antimicrobial MIC [μM] S. aureus
[7] = ATCC8739, Table 1, E. coli ATCC8739, read-out: Antibacterial MIC (μM) E.Coli
[8] = Table 1, read-out: Antibacterial MIC (μM) S. aureus Smith
[9] = Table 1, 300 mg/kg oral, ICR mice, plasma glucose 0.5 and 1 hr after glucose load vs vehicle

Compound: Cc1c[nH]c(-c2cnc(NCCNc3ccc(C#N)cn3)nc2-c2ccc(Cl)cc2Cl)n1 [CHIR99021]
- blood glucose levels (FIG. 1) [1]: drop in blood glucose levels

Compound: C[C@H]1COc2c(NCCCn3ccnc3)c(F)c(N)c3c(=O)c(C#N)cn1c23 [Example 114]
- IC50 ([2]; Table 2): < 0.1 µM
- inhibition in vivo at 300 mg/kg [3, 4]: > 20%

Compound: C[C@H]1COc2c(NCCCc3ccccn3)c(F)c(N)c3c(=O)c(C#N)cn1c23 [Example 115]
- IC50 ([2]; Table 2): < 0.1 µM
- inhibition in vivo at 300 mg/kg [3, 4]: < 5%

Compound: Nc1c(F)c(NCCNc2ccccn2)cc2c1c(=O)c(C(=O)O)cn2CCc1ccccc1 [Example 119]
- IC50 ([2]; Table 2): < 0.1 µM
- MIC (E. coli, ATCC8739; [5]): 10 to 50 µM (≈ 4.61 to 23.1 µg/mL)
- MIC (S. aureus Smith; [6]): 10 to 50 µM (≈ 4.61 to 23.1 µg/mL)
- inhibition in vivo at 300 mg/kg [3, 4]: < 5%

Compound: CC1(C)CCOc2c(NCCNc3ccccn3)c(F)c(N)c3c(=O)c(C(=O)O)cn1c23 [Example 139]
- IC50 ([2]; Table 2): 0.1 to 0.5 µM
- MIC (E. coli, ATCC8739; [5]): > 50 µM
- MIC (S. aureus Smith; [6]): > 50 µM
- inhibition in vivo at 300 mg/kg [3, 4]: > 20%

Compound: C[C@H]1COc2c(NCCNc3ccccn3)c(F)c(N)c3c(=O)c(C(=O)O)cn1c23 [compound 18]
- IC50 ([2]; Table 2): < 0.1 µM
- MIC (E. coli, ATCC8739; [5]): 0.5 to 10 µM (≈ 0.207 to 4.13 µg/mL)
- MIC (S. aureus Smith; [6]): 0.5 to 10 µM (≈ 0.207 to 4.13 µg/mL)
- inhibition in vivo at 300 mg/kg [3, 4]: 10 to 20%

Compound: C[C@@H]1COc2c(NCCNc3ccccn3)c(F)c(N)c3c(=O)c(C(=O)O)cn1c23 [compound 31]
- IC50 ([2]; Table 2): 0.1 to 0.5 µM
- MIC (E. coli, ATCC8739; ATCC8739, read-out: Antimicrobial MIC [μM] E. Coli): 10 to 50 µM (≈ 4.13 to 20.7 µg/mL)
- MIC (S. aureus Smith; read-out: Antimicrobial MIC [μM] S. aureus): 10 to 50 µM (≈ 4.13 to 20.7 µg/mL)
- inhibition in vivo at 300 mg/kg ([3]; po): > 20%

Compound: CC1(C)COc2c(NCCCn3ccnc3)c(F)c(N)c3c(=O)c(C(=O)O)cn1c23 [compound 33]
- IC50 ([2]; Table 2): 0.1 to 0.5 µM
- MIC (E. coli, ATCC8739; [5]): > 50 µM
- MIC (S. aureus Smith; [6]): > 50 µM
- inhibition in vivo at 300 mg/kg [3, 4]: > 20%

Compound: CC1(C)Cn2cc(C(=O)O)c(=O)c3c(N)c(F)c(NCCNc4ccccn4)c(c32)O1 [compound 57]
- IC50 ([2]; Table 2): 0.1 to 0.5 µM
- MIC (E. coli, ATCC8739; [5]): 10 to 50 µM (≈ 4.27 to 21.4 µg/mL)
- MIC (S. aureus Smith; [6]): 10 to 50 µM (≈ 4.27 to 21.4 µg/mL)
- inhibition in vivo at 300 mg/kg [3, 4]: > 20%

Continued, in another order:

- IC50 ([2]; Table 1): 0.1 to 0.5 µM
- MIC (E. coli, ATCC8739; [7]): > 50 µM
- MIC (S. aureus Smith; [8]): > 50 µM
Compound: Nc1c(F)c(NCCCn2ccnc2)c(F)c2c1c(=O)ccn2CCc1ccccc1 [compound 62]
- inhibition in vivo at 300 mg/kg [3, 9]: 5 to 10%

- IC50 ([2]; Table 2): < 0.1 µM
Compound: C[C@H]1COc2c(NCCCN3CCCc4ccccc43)c(F)c(N)c3c(=O)c(C(=O)O)cn1c23 [compound 67]
- inhibition in vivo at 300 mg/kg [3, 4]: 10 to 20%

- IC50 ([2]; Table 1): < 0.1 µM
- MIC (E. coli, ATCC8739; [7]): > 50 µM
- MIC (S. aureus Smith; [8]): 0.5 to 10 µM (≈ 0.238 to 4.77 µg/mL)
Compound: COc1c(NCCNc2cccc3ccccc23)c(F)c(N)c2c(=O)c(C(=O)O)cn(C3CC3)c12 [compound 70]
- inhibition in vivo at 300 mg/kg [3, 9]: < 5%

- IC50 ([2]; Table 2): < 0.1 µM
Compound: C[C@H]1COc2c(NCCCc3ccccn3)c(F)c(N)c3c(=O)c(C(=O)O)cn1c23 [compound 70]
- inhibition in vivo at 300 mg/kg [3, 4]: > 20%

- IC50 ([2]; Table 1): 0.1 to 0.5 µM
- MIC (E. coli, ATCC8739; [7]): 0.5 to 10 µM (≈ 0.214 to 4.27 µg/mL)
- MIC (S. aureus Smith; [8]): 0.5 to 10 µM (≈ 0.214 to 4.27 µg/mL)
Compound: COc1c(NCCNc2ccccn2)c(F)c(N)c2c(=O)c(C(=O)O)cn(C3CC3)c12 [compound 71]
- inhibition in vivo at 300 mg/kg [3, 9]: 10 to 20%

- IC50 ([2]; Table 2): < 0.1 µM
Compound: C[C@H]1COc2c(NCCCc3ccc(F)cc3)c(F)c(N)c3c(=O)c(C(=O)O)cn1c23 [compound 72]
- inhibition in vivo at 300 mg/kg [3, 4]: > 20%

- IC50 ([2]; Table 2): < 0.1 µM
Compound: CCN(CCCNc1c(F)c(N)c2c(=O)c(C(=O)O)cn3c2c1OC[C@@H]3C)c1ccccc1 [compound 76]
- inhibition in vivo at 300 mg/kg [3, 4]: > 20%

- IC50 ([2]; Table 2): < 0.1 µM
Compound: C[C@H]1COc2c(NCCCNC(=O)C34CC5CC(CC(C5)C3)C4)c(F)c(N)c3c(=O)c(C(=O)O)cn1c23 [compound 80]
- inhibition in vivo at 300 mg/kg [3, 4]: 5 to 10%
